Assay results published in patent US20210299103A1, “COMPOSITION FOR PREVENTING OR TREATING CANCER, COMPRISING SULFONAMIDE DERIVATIVE AS ACTIVE INGREDIENT” (EXOSTEMTECH CO., LTD., priority 2018, published 2021).
In brackets after ≈: the same amount, converted by molar mass. Entries after “also recorded” stand apart in the source; their conditions may differ. Like-named read-outs stand apart in the source and are kept apart here.

Legend:
MDA-MB231 cells [1] = conditions: 100, 200, 400 or 800 μM, cultured 24 hours, FIG. 3
Protocol: After seeding MDA-MB231 cells into a 24-well plate with 1×10^4 cells/well, the cells were stabilized by culturing for 24 hours.
After the culturing, the cells were incubated for 4 hours with an MTT tetrazolium reagent. Then, cell proliferation was investigated by measuring the absorbance of reduced MTT formazan (3-(4,5-dimethylthiazol-2-yl)-2,5-diphenyl-tetrazolium bromide) at 595 nm. Docetaxel (10 μM), which is currently used as an anticancer agent, was used as a control group.

[2] = tested on: MDA-MB231 breast cancer cells; test: Exosome secretion inhibition, exosomes counted with Nano-sight LM10; type: cell-based; conditions: 100 μM, serum-free medium, 24 hours, FIG. 4
Protocol: MDA-MB231 breast cancer cells were cultured on a 150-mm culture plate. 24 hours later, after removing the medium and washing with PBS, the cells were treated with each compound at 100 μM together with a serum-free medium and cultured for 24 hours. After discarding the medium and centrifuging at 300×g for 3 minutes, 2,500×g for 15 minutes […] 10,000×g for 30 minutes, the supernatant was transferred to a fresh tube.
After filtering through a 200-nm syringe filter, exosome pellets were obtained by centrifuging at 120,000×g for 90 minutes. After redispersing the exosome pellets using PBS, the number of exosomes secreted by the cells was counted using Nano-sight LM10 (Malvern).

MDA-MB231 cells [3] = test: Cancer cell migration assay, 8 μm insert, crystal violet staining; type: cell-based; conditions: 100, 200, 400 or 800 μM, 5 hours, FIG. 5
[4] = tested on: Escherichia coli (ATCC 25922); test: Minimum inhibitory concentration (MIC) assay on Mueller-Hinton agar, CLSI guidelines; type: cell-based; conditions: for antibiotic susceptibility / antibiotic effect (in words): E. coli; for MIC: E.coli (ATCC 25922), Mueller-Hinton agar
Source text: (§1) Staphylococcus aureus (ATCC 29213) and Escherichia coli (ATCC 25922) were used.

[5] = tested on: Staphylococcus aureus (ATCC 29213); test: as above; type: cell-based; conditions: for antibiotic susceptibility / antibiotic effect (in words): S. aureus; for MIC: S.aureus (ATCC 29213), Mueller-Hinton agar
Source text: as §1

Compound	cytotoxicity (MTT, absorbance at 595 nm) (MDA-MB231 cells [1])	inhibition of secretion of exosomes [2]	inhibition of migration of the cancer cells (MDA-MB231 cells [3])	antibiotic susceptibility / antibiotic effect (in words) [4]	MIC [4] [µg/mL]	antibiotic susceptibility / antibiotic effect (in words) [5]	MIC [5] [µg/mL]	MIC ([4]; Escherichia coli, ATCC25922, read-out: MIC) [µg/mL]	MIC ([5]; Staphylococcus aureus, ATCC29213, read-out: MIC) [µg/mL]
CC(=O)Nc1ccc(S(=O)(=O)N(C(C)=O)c2onc(C)c2C)cc1 [SFX-DAS, sulfisoxazole-N^1&N^4-dual acetyl]	exhibit cytotoxicity at 100 μM or higher	strongly inhibit the secretion of exosomes	inhibited in a concentration-dependent manner	no antibiotic susceptibility at all; also recorded: completely disappeared	>512	no antibiotic susceptibility at all; also recorded: completely disappeared	>512		
CC(=O)N(c1onc(C)c1C)S(=O)(=O)c1ccc(N)cc1 [SFX-N1AS, sulfisoxazole-N^1-acetyl]		strongly inhibit the secretion of exosomes	inhibited in a concentration-dependent manner	decreased antibiotic susceptibility; also recorded: reduced significantly	128 (≈ 414 µM)	decreased antibiotic susceptibility; also recorded: reduced significantly	512 (≈ 1660 µM)		
CC(=O)Nc1ccc(S(=O)(=O)Nc2onc(C)c2C)cc1 [SFX-N4AS, sulfisoxazole-N^4-acetyl]		strongly inhibit the secretion of exosomes	inhibited in a concentration-dependent manner	no antibiotic susceptibility at all; also recorded: completely disappeared	>512	no antibiotic susceptibility at all; also recorded: completely disappeared	>512		
Cc1noc(NS(=O)(=O)c2ccc(N)cc2)c1C [SFX-WT, sulfisoxazole, reference compound]			inhibited in a concentration-dependent manner	strong antibiotic susceptibility		strong antibiotic susceptibility		16 (≈ 59.9 µM)	32 (≈ 120 µM)
